# Laboratory results published in the supplement of paper PMC8967900.
# Test system: MHH-CALL-2
# Experiment: selective drug sensitivity score (sDSS, relative to normal bone marrow) (sDSS (score)); higher = more potent and effective on the cell line relative to normal bone marrow cells
# Settings: 72 h
# 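Also: ALL cell lines in 384-well plates, five doses spanning 10,000-fold, each plate scaled between vehicle and 100 µmol/L benzalkonium chloride controls, sDSS an adapted area-under-curve metric.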
row,SMILES,selective drug sensitivity score
1,Cn1cc(C[C@@H](N)C(=O)O)c2ccccc21 [1-methyl-D-tryptophan] (top concentration 5000 nM),2.28
2,CN(C)C[C@@H]1CCn2cc(c3ccccc32)C2=C(C(=O)NC2=O)c2cn(c3ccccc23)CCO1 [Ruboxistaurin] (top concentration 10000 nM),3.66
3,CCNC(=O)CCC/C=C\C[C@@H]1[C@@H](/C=C/[C@@H](O)CCc2ccccc2)[C@H](O)C[C@@H]1O [Bimatoprost] (top concentration 5500 nM),0
4,O=c1[nH]cc(F)c(=O)[nH]1 [Fluorouracil] (top concentration 10000 nM),-0.04
5,CC1(C)NC(=O)N(c2ccc([N+](=O)[O-])c(C(F)(F)F)c2)C1=O [Nilutamide] (top concentration 10000 nM),7.92
6,CNC(=O)c1ccc2cc([C@@]3(O)CCn4cncc43)ccc2c1 [Orteronel] (top concentration 10000 nM),0
7,CCC(C)(C)C(=O)O[C@H]1C[C@@H](C)C=C2C=C[C@H](C)[C@H](CC[C@@H]3C[C@@H](O)CC(=O)O3)[C@H]21 [Simvastatin] (top concentration 10000 nM),9.58
8,C[C@]12CC[C@H](O)CC1=CC[C@@H]1[C@@H]2CC[C@]2(C)C(c3cccnc3)=CC[C@@H]12 [Abiraterone] (top concentration 5000 nM),0.88

# Test system: ALL-PO
# Experiment: as above
# Settings: 72 h
row,SMILES,selective drug sensitivity score
1,Cn1cc(C[C@@H](N)C(=O)O)c2ccccc21 [1-methyl-D-tryptophan] (top concentration 5000 nM),-0.62
2,CN(C)C[C@@H]1CCn2cc(c3ccccc32)C2=C(C(=O)NC2=O)c2cn(c3ccccc23)CCO1 [Ruboxistaurin] (top concentration 10000 nM),6.86
3,CCNC(=O)CCC/C=C\C[C@@H]1[C@@H](/C=C/[C@@H](O)CCc2ccccc2)[C@H](O)C[C@@H]1O [Bimatoprost] (top concentration 5500 nM),0
4,O=c1[nH]cc(F)c(=O)[nH]1 [Fluorouracil] (top concentration 10000 nM),8.56
5,CC1(C)NC(=O)N(c2ccc([N+](=O)[O-])c(C(F)(F)F)c2)C1=O [Nilutamide] (top concentration 10000 nM),-0.08
6,CNC(=O)c1ccc2cc([C@@]3(O)CCn4cncc43)ccc2c1 [Orteronel] (top concentration 10000 nM),0
7,CCC(C)(C)C(=O)O[C@H]1C[C@@H](C)C=C2C=C[C@H](C)[C@H](CC[C@@H]3C[C@@H](O)CC(=O)O3)[C@H]21 [Simvastatin] (top concentration 10000 nM),-0.72
8,C[C@]12CC[C@H](O)CC1=CC[C@@H]1[C@@H]2CC[C@]2(C)C(c3cccnc3)=CC[C@@H]12 [Abiraterone] (top concentration 5000 nM),3.48

# Test system: RCH-ACV
# Experiment: as above
# Settings: 72 h
row,SMILES,selective drug sensitivity score
1,Cn1cc(C[C@@H](N)C(=O)O)c2ccccc21 [1-methyl-D-tryptophan] (top concentration 5000 nM),-0.62
2,CN(C)C[C@@H]1CCn2cc(c3ccccc32)C2=C(C(=O)NC2=O)c2cn(c3ccccc23)CCO1 [Ruboxistaurin] (top concentration 10000 nM),1.06
3,CCNC(=O)CCC/C=C\C[C@@H]1[C@@H](/C=C/[C@@H](O)CCc2ccccc2)[C@H](O)C[C@@H]1O [Bimatoprost] (top concentration 5500 nM),0
4,O=c1[nH]cc(F)c(=O)[nH]1 [Fluorouracil] (top concentration 10000 nM),2.96
5,CC1(C)NC(=O)N(c2ccc([N+](=O)[O-])c(C(F)(F)F)c2)C1=O [Nilutamide] (top concentration 10000 nM),-0.48
6,CNC(=O)c1ccc2cc([C@@]3(O)CCn4cncc43)ccc2c1 [Orteronel] (top concentration 10000 nM),0
7,CCC(C)(C)C(=O)O[C@H]1C[C@@H](C)C=C2C=C[C@H](C)[C@H](CC[C@@H]3C[C@@H](O)CC(=O)O3)[C@H]21 [Simvastatin] (top concentration 10000 nM),2.18
8,C[C@]12CC[C@H](O)CC1=CC[C@@H]1[C@@H]2CC[C@]2(C)C(c3cccnc3)=CC[C@@H]12 [Abiraterone] (top concentration 5000 nM),-0.02

# Test system: TANOUE
# Experiment: as above
# Settings: 72 h
row,SMILES,selective drug sensitivity score
1,Cn1cc(C[C@@H](N)C(=O)O)c2ccccc21 [1-methyl-D-tryptophan] (top concentration 5000 nM),-0.62
2,CN(C)C[C@@H]1CCn2cc(c3ccccc32)C2=C(C(=O)NC2=O)c2cn(c3ccccc23)CCO1 [Ruboxistaurin] (top concentration 10000 nM),-8.24
3,CCNC(=O)CCC/C=C\C[C@@H]1[C@@H](/C=C/[C@@H](O)CCc2ccccc2)[C@H](O)C[C@@H]1O [Bimatoprost] (top concentration 5500 nM),0
4,O=c1[nH]cc(F)c(=O)[nH]1 [Fluorouracil] (top concentration 10000 nM),-0.64
5,CC1(C)NC(=O)N(c2ccc([N+](=O)[O-])c(C(F)(F)F)c2)C1=O [Nilutamide] (top concentration 10000 nM),-0.48
6,CNC(=O)c1ccc2cc([C@@]3(O)CCn4cncc43)ccc2c1 [Orteronel] (top concentration 10000 nM),0
7,CCC(C)(C)C(=O)O[C@H]1C[C@@H](C)C=C2C=C[C@H](C)[C@H](CC[C@@H]3C[C@@H](O)CC(=O)O3)[C@H]21 [Simvastatin] (top concentration 10000 nM),-0.72
8,C[C@]12CC[C@H](O)CC1=CC[C@@H]1[C@@H]2CC[C@]2(C)C(c3cccnc3)=CC[C@@H]12 [Abiraterone] (top concentration 5000 nM),-0.12

# Test system: 380
# Experiment: as above
# Settings: 72 h
row,SMILES,selective drug sensitivity score
1,Cn1cc(C[C@@H](N)C(=O)O)c2ccccc21 [1-methyl-D-tryptophan] (top concentration 5000 nM),-0.02
2,CN(C)C[C@@H]1CCn2cc(c3ccccc32)C2=C(C(=O)NC2=O)c2cn(c3ccccc23)CCO1 [Ruboxistaurin] (top concentration 10000 nM),3.96
3,CCNC(=O)CCC/C=C\C[C@@H]1[C@@H](/C=C/[C@@H](O)CCc2ccccc2)[C@H](O)C[C@@H]1O [Bimatoprost] (top concentration 5500 nM),0
4,O=c1[nH]cc(F)c(=O)[nH]1 [Fluorouracil] (top concentration 10000 nM),1.86
5,CC1(C)NC(=O)N(c2ccc([N+](=O)[O-])c(C(F)(F)F)c2)C1=O [Nilutamide] (top concentration 10000 nM),-0.48
6,CNC(=O)c1ccc2cc([C@@]3(O)CCn4cncc43)ccc2c1 [Orteronel] (top concentration 10000 nM),1.4
7,CCC(C)(C)C(=O)O[C@H]1C[C@@H](C)C=C2C=C[C@H](C)[C@H](CC[C@@H]3C[C@@H](O)CC(=O)O3)[C@H]21 [Simvastatin] (top concentration 10000 nM),4.88
8,C[C@]12CC[C@H](O)CC1=CC[C@@H]1[C@@H]2CC[C@]2(C)C(c3cccnc3)=CC[C@@H]12 [Abiraterone] (top concentration 5000 nM),0.58
